Test systems include DMS-273; EKVX; HCC 2998; HCT-116; HOP-62; HT-29; M14; NCI-H23; NCI-H460; NCI-H522; OVCAR-8; SF-539; SN12C; SR; TK-10; UACC-62; UO-31; MDA-MB-231; MDA-N; PC-3.
What all share (test): DTP human tumour cell line panel, 48 h

Each structure is given as a SMILES string.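 All cell lines were grown in 96-well plates and treated with compound for 48 hours. GI50 is the concentration that inhibits growth by half.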 Active and inactive are the calls of the source. No stated cut-off is given here; in the data, active = GI50 up to about 1.1 µM and inactive = higher. Some results are limits rather than exact numbers.

By GI50 is commonly meant the concentration giving 50% growth inhibition. On to `O=c1oc2c(O)c(O)cc3c(=O)oc4c(O)c(O)cc1c4c23` [ELLAGIC ACID], for which the GI50 was > 10 µM (inactive) with DMS-273; 57.4 µM (inactive) with EKVX; > 10 µM (inactive) in the assay on HCC 2998; 92 µM (inactive) in the assay with HCT-116; > 10 µM (inactive) with HOP-62; > 10 µM (inactive) with HT-29. For the same compound, the GI50 is 18.5 µM (inactive) in the assay on M14; 47.9 µM (inactive) in the assay on NCI-H23; 53.5 µM (inactive) in the assay on NCI-H460; 24.1 µM (inactive) in the assay with NCI-H522; 18.6 µM (inactive) in the assay on OVCAR-8; > 10 µM (inactive) with SF-539. Moreover, the GI50 in the assay on SN12C is 38.1 µM (inactive); in the assay on SR, 71.1 µM (inactive); in the assay with TK-10, 75.2 µM (inactive); with UACC-62, 40.8 µM (inactive); in the assay on UO-31, 39.7 µM (inactive).
On to `COc1cc2c(cc1OC(=O)CC(C)O)C1C(OC2=O)C(OC(C)=O)C=C2CCN(C)[C@H]21` (stereo not given in full), for which the GI50 was 47.1 µM (inactive) in the assay on DMS-273; 65.8 µM (inactive) with EKVX; 26.2 µM (inactive) in the assay with HCC 2998; 58.7 µM (inactive) in the assay on HCT-116; 21.1 µM (inactive) in the assay with HOP-62; > 100 µM (inactive) in the assay on HT-29. In addition, the GI50 was 68.5 µM (inactive) in the assay with M14; 33.1 µM (inactive) with NCI-H23; > 100 µM (inactive) in the assay with NCI-H460; 97.7 µM (inactive) in the assay with NCI-H522; 39.9 µM (inactive) with OVCAR-8; 21.4 µM (inactive) in the assay on SF-539. Besides, the GI50 in the assay on SN12C is 38.6 µM (inactive); in the assay on SR, 74.5 µM (inactive); in the assay with TK-10, 26.3 µM (inactive); in the assay on UACC-62, 31.1 µM (inactive); in the assay on UO-31, 47 µM (inactive).
Turning to `CCCCCCCCCCCCCCCCCCCCCC(=O)Nc1ccn(C2OC(CO)C(O)C2O)c(=O)n1` (stereo not given), the GI50 in the assay on DMS-273 was 35.6 µM (inactive); in the assay on EKVX, > 100 µM (inactive); in the assay with HCC 2998, > 100 µM (inactive); in the assay with HCT-116, 6.89 µM (inactive); with HOP-62, 3.11 µM (inactive); in the assay on HT-29, > 100 µM (inactive). Moreover, the GI50 in the assay on M14 was 4.91 µM (inactive); in the assay with NCI-H23 it was 3.1 µM (inactive); in the assay on NCI-H460, 2.32 µM (inactive); in the assay on NCI-H522, > 100 µM (inactive); in the assay with OVCAR-8, 12.4 µM (inactive); in the assay on SF-539, > 100 µM (inactive). Moreover, the GI50 is > 60.8 µM (inactive) in the assay with SN12C; 1.67 µM (inactive) in the assay with SR; > 100 µM (inactive) in the assay with TK-10; 33.6 µM (inactive) with UACC-62; 32.1 µM (inactive) with UO-31.
As to `NC(=S)N1N=C2c3ccccc3CCC[C@H]2[C@@H]1c1ccccc1`, the GI50 in the assay with DMS-273 is 0.721 µM (active); in the assay on EKVX, 9.23 µM (inactive); in the assay on HCC 2998, 1.99 µM (inactive); in the assay with HCT-116 it was 1.26 µM (inactive); in the assay on HOP-62 it was 2.2 µM (inactive); with HT-29, 0.867 µM (active). The GI50 is 0.315 µM (active) in the assay with M14; 0.513 µM (active) with MDA-MB-231; 0.0531 µM (active) in the assay with MDA-N; 1.84 µM (inactive) in the assay with NCI-H23; 1.07 µM (active) in the assay on NCI-H460; 0.361 µM (active) with NCI-H522. Also, the GI50 in the assay with OVCAR-8 was 3.2 µM (inactive); with PC-3, 1.1 µM (active); in the assay with SF-539 it was 0.518 µM (active); with SN12C, 2.52 µM (inactive); in the assay with SR it was 0.249 µM (active); in the assay on TK-10, 10.3 µM (inactive). Moreover, the GI50 in the assay with UO-31 was 1.9 µM (inactive).

The record behind these values is ChEMBL document CHEMBL1201862, “PubChem BioAssay data set” (2004).
